Results as given in ChEMBL document CHEMBL3885861, “Open TG-GATES”.
Where “and” joins values, the source holds several entries; their conditions need not be identical. Identical values can stand only once.

Organism: Rattus norvegicus
Assay: Open TG-GATES - Regimen: Single
Format: toxicity, organism-based, Sprague-Dawley
Parameters: regimen Single, gender Male, age 6 weeks
Conditions: in vivo, po, 0 mg/kg, route gavage, dose level Control; for APTT / Bas / Eos / Fbg / Hb / Ht / Lym / MCH / MCHC / MCV / Mono / Neu / PT / Plat / RBC / Ret / WBC: tissue Blood; for KIDNEY_L / KIDNEY_R / KIDNEY_TOTAL: tissue Kidney; for LIVER: tissue Liver; for A/G / ALP / ALT / AST / BUN / CRE / Ca / Cl / GLC / IP / K / LDH / Na / PL / RALB / TBIL / TC / TG / TP / gamma-GTP / DBIL: tissue Plasma

COc1ccc2c(c1)c(CC(=O)O)c(C)n2C(=O)c1ccc(Cl)cc1 [INDOMETHACIN]
TERMINAL_BW (3 h): 201 g and 226.5 g | APTT (3 h): 16.8 s and 19.8 s | Bas (3 h): 0% and 0.2% | Eos (3 h): 0.6% and 1% | Fbg (3 h): 201.6 mg/dL and 227.8 mg/dL | Hb (3 h): 13.6 g/dL and 13.9 g/dL | Ht (3 h): 40.8% and 38.7% | Lym (3 h): 80% and 80.4% | MCH (3 h): 21.9 pg and 22.5 pg | MCHC (3 h): 33.2% and 35.9% | MCV (3 h): 66 fL and 62.6 fL | Mono (3 h): 10.2% and 2.4% | Neu (3 h): 9.6% and 15% | PT (3 h): 12.8 s and 11.9 s | Plat (3 h): 109 x10_4/uL and 118.1 x10_4/uL | RBC (3 h): 618.8 x10_4/ul | Ret (3 h): 10.2% and 7.9% | WBC (3 h): 108.5 x10_2/uL and 100.3 x10_2/uL | KIDNEY_L (3 h): 0.9 g and 1 g | KIDNEY_R (3 h): 0.9 g and 1 g | KIDNEY_TOTAL (3 h): 1.8 g and 2 g | LIVER (3 h): 9.4 g and 10 g | A/G (3 h): 1.6 and 1.8 | ALP (3 h): 1191.4 IU/L and 1059 IU/L | ALT (3 h): 39 IU/L and 32.2 IU/L | AST (3 h): 69.6 IU/L and 71.8 IU/L | BUN (3 h): 12.2 mg/dL and 11.8 mg/dL | CRE (3 h): 0.5 mg/dL and 0.4 mg/dL | Ca (3 h): 10.6 mg/dL and 10.7 mg/dL | Cl (3 h): 105.6 meq/L and 103 meq/L | GLC (3 h): 194.4 mg/dL and 209.4 mg/dL | IP (3 h): 10 mg/dL and 9.2 mg/dL | K (3 h): 5.1 meq/L and 4.1 meq/L | LDH (3 h): 104.8 IU/L and 217.4 IU/L | Na (3 h): 137.8 meq/L and 141 meq/L | PL (3 h): 129.4 mg/dL and 135 mg/dL | RALB (3 h): 3.8 g/dL and 3.4 g/dL | TBIL (3 h): 0.3 mg/dL and 0.1 mg/dL | TC (3 h): 74.8 mg/dL and 73.8 mg/dL | TG (3 h): 56.2 mg/dL and 67.4 mg/dL | TP (3 h): 6.1 g/dL and 5.4 g/dL | gamma-GTP (3 h): 1.2 IU/L | TERMINAL_BW (6 h): 197.2 g and 224 g | APTT (6 h): 17.5 s and 19.1 s | Bas (6 h): 0% | Eos (6 h): 0.8% | Fbg (6 h): 209.2 mg/dL and 225.2 mg/dL | Hb (6 h): 13.6 g/dL and 13.8 g/dL | Ht (6 h): 41% and 38.1% | Lym (6 h): 78.2% and 80% | MCH (6 h): 21.9 pg and 22.3 pg | MCHC (6 h): 33.1% and 36.4% | MCV (6 h): 66.2 fL and 61.3 fL | Mono (6 h): 6.8% and 2.8% | Neu (6 h): 14.2% and 15% | PT (6 h): 12.7 s and 12.2 s | Plat (6 h): 104.7 x10_4/uL and 120.1 x10_4/uL | RBC (6 h): 619.4 x10_4/ul and 621.8 x10_4/ul | Ret (6 h): 9.3% and 7.9% | WBC (6 h): 111.4 x10_2/uL and 85.5 x10_2/uL | KIDNEY_L (6 h): 0.9 g | KIDNEY_R (6 h): 0.9 g | KIDNEY_TOTAL (6 h): 1.8 g and 1.9 g | LIVER (6 h): 8.4 g and 9.5 g | A/G (6 h): 1.7 and 1.6 | ALP (6 h): 1101.4 IU/L and 861.4 IU/L | ALT (6 h): 34.2 IU/L and 31.6 IU/L | AST (6 h): 68.4 IU/L and 67.8 IU/L | BUN (6 h): 11.6 mg/dL and 9.6 mg/dL | CRE (6 h): 0.5 mg/dL and 0.4 mg/dL | Ca (6 h): 10.1 mg/dL and 10.8 mg/dL | Cl (6 h): 106 meq/L and 102.8 meq/L | DBIL (6 h): 0.032 mg/dL and 0.078 mg/dL | GLC (6 h): 193.2 mg/dL and 193.8 mg/dL | IP (6 h): 9.8 mg/dL and 9.4 mg/dL | K (6 h): 4.8 meq/L and 4.1 meq/L | LDH (6 h): 77.2 IU/L and 197.4 IU/L | Na (6 h): 137.2 meq/L and 140.6 meq/L | PL (6 h): 119.2 mg/dL and 136.4 mg/dL | RALB (6 h): 3.8 g/dL and 3.4 g/dL | TBIL (6 h): 0.3 mg/dL and 0.1 mg/dL | TC (6 h): 69.2 mg/dL and 73.4 mg/dL | TG (6 h): 39 mg/dL and 70.6 mg/dL | TP (6 h): 6 g/dL and 5.5 g/dL | gamma-GTP (6 h): 1.8 IU/L and 1 IU/L | TERMINAL_BW (9 h): 196.5 g and 222.5 g | APTT (9 h): 16.7 s and 17.7 s | Bas (9 h): 0% | Eos (9 h): 0.4% and 1% | Fbg (9 h): 211.2 mg/dL and 229.6 mg/dL | Hb (9 h): 13.2 g/dL and 13.5 g/dL | Ht (9 h): 40% and 36.8% | Lym (9 h): 82.8% and 78.6% | MCH (9 h): 21.7 pg and 22.4 pg | MCHC (9 h): 33.1% and 36.7% | MCV (9 h): 65.6 fL and 61.1 fL | Mono (9 h): 6.4% and 2.8% | Neu (9 h): 10.2% and 16.6% | PT (9 h): 12.5 s | Plat (9 h): 100.8 x10_4/uL and 126.3 x10_4/uL | RBC (9 h): 610 x10_4/ul and 603.4 x10_4/ul | Ret (9 h): 10.2% and 8.2% | WBC (9 h): 121.1 x10_2/uL and 84 x10_2/uL | KIDNEY_L (9 h): 0.9 g and 1 g | KIDNEY_R (9 h): 0.9 g and 1 g | KIDNEY_TOTAL (9 h): 1.9 g | LIVER (9 h): 8.1 g and 8.7 g | A/G (9 h): 2.5 and 1.7 | ALP (9 h): 901.4 IU/L and 851.8 IU/L | ALT (9 h): 33.8 IU/L and 28.6 IU/L | AST (9 h): 68.8 IU/L and 64.8 IU/L | BUN (9 h): 12.4 mg/dL and 9.6 mg/dL | CRE (9 h): 0.5 mg/dL and 0.4 mg/dL | Ca (9 h): 10.2 mg/dL and 10.5 mg/dL | Cl (9 h): 107 meq/L and 104.2 meq/L | DBIL (9 h): 0.042 mg/dL and 0.072 mg/dL | GLC (9 h): 191 mg/dL and 209 mg/dL | IP (9 h): 10.3 mg/dL | K (9 h): 5.1 meq/L and 3.8 meq/L | LDH (9 h): 98.8 IU/L and 189 IU/L | Na (9 h): 138 meq/L and 142.4 meq/L | PL (9 h): 137.6 mg/dL and 129.2 mg/dL | RALB (9 h): 3.9 g/dL and 3.5 g/dL | TC (9 h): 81 mg/dL and 72.4 mg/dL | TG (9 h): 43.4 mg/dL and 45.8 mg/dL | TP (9 h): 5.4 g/dL and 5.6 g/dL | gamma-GTP (9 h): 2 IU/L and 1 IU/L | TERMINAL_BW (24 h): 215.4 g and 240.9 g | APTT (24 h): 16.7 s and 18.2 s | Bas (24 h): 0% and 0.8% | Eos (24 h): 1% and 0.6% | Fbg (24 h): 218.4 mg/dL and 222.8 mg/dL | Hb (24 h): 13.5 g/dL and 13.2 g/dL | Ht (24 h): 41.1% and 38.2% | Lym (24 h): 79% and 79.8% | MCH (24 h): 21.6 pg and 21.5 pg | MCHC (24 h): 33% and 34.4% | MCV (24 h): 65.5 fL and 62.4 fL | Mono (24 h): 10.4% and 2.6% | Neu (24 h): 9.4% and 15.6% | PT (24 h): 12.1 s and 11.5 s | Plat (24 h): 95.4 x10_4/uL and 128.4 x10_4/uL | RBC (24 h): 627.4 x10_4/ul and 612.4 x10_4/ul | Ret (24 h): 9.1% and 6.5% | WBC (24 h): 106.5 x10_2/uL and 112.4 x10_2/uL | KIDNEY_L (24 h): 1 g | KIDNEY_R (24 h): 1 g | KIDNEY_TOTAL (24 h): 2 g
